EP1756125B1, “1,1,3,3,3-[…]-1-OXO/THIO-1LAMBDA5,3LAMBDA5-DIPHOSPHAZ-2-ENES, METHOD FOR PRODUCING THEM AND THEIR USE AS AGENTS FOR […] […] […] UREA” (SKW STICK[…] GmbH, priority 2004, dated 2005)

tested on: Urease; assay: Test for urease-inhibiting effect in soil (NH3-N release from urea, closed vessel with ammonia trap); assay type: biochemical; conditions: Konz. 0,1 % HS-N-bez.; soil at 40 % of maximum water capacity, 50 mg urea; t50 = day after start at which inhibition of urea hydrolysis is still 50 %
Method: 30 g auf 40 % der maximalen Wasserkapazität eingestellter Boden werden mit 1 ml Harnstofflösung entsprechend 50 mg Harnstoff versetzt. Gleichzeitig erfolgt die Applikation des Wirkstoffes, vorzugsweise in der Harnstofflösung gelöst. Die Konzentrationsangaben für die einzelnen geprüften Wirkstoffe in der nachfolgenden Tabelle beziehen sich auf die im Test verwendete Menge an Carbamidstickstoff. Der Boden, auf dessen Oberfläche die Harnstofflösung (mit und ohne Wirkstoff) aufgebracht wird, befindet sich in einem luftdicht verschlossenen Gefäß, in das gleichzeitig eine Vorlage eingebracht wird, die den aus dem Harnstoff freigesetzten Ammoniak als Ammonium auffängt. Durch tägliches Überspülen der Vorlage und Analyse der enthaltenen NH4-N-Mengen wird die NH3-N-Freisetzung aus dem Harnstoff bestimmt.
Aus der Summation der Ammonium-Mengen in der Vorlage wird die prozentuale Hemmung der Harnstoff-Hydrolyse in Abhängigkeit von der Zeit berechnet bzw. aus diesen Werten der t50-Wert rechnerisch ermittelt.
Als t50-Wert wird der Zeitpunkt in Tagen nach Versuchsbeginn verstanden, zu dem die Hemmung der Harnstoff-Hydrolyse noch 50 % beträgt.

**Q.** Which t50-Wert does the source give for `CCCNP(N)(N)=NP(N)(N)=S` [Verbindung 6, 3-Propylamino-1,1,3,3-tetraamino-1-thio-1λ^5,3λ^5-diphosphaz-2-en] here?
**A.** 14,2 d

**Q.** `CCCNP(N)(=NP(N)(N)=S)NCCC` [Verbindung 3, 3,3-Bis(propylamino)-1,1,3,-triamino-1-thio-1λ^5,3λ^5-diphosphaz-2-en] was tested. Which t50-Wert did it give?
**A.** 10,4 d

**Q.** With `CCCCNP(N)(=NP(N)(N)=O)NCCCC` [Verbindung 2, 3,3-Bis(butylamino)-1,1,3,-triamino-1-oxo-1λ^5,3λ^5-diphosphaz-2-en] as the molecule, how does the t50-Wert read?
**A.** 8,8 d

**Q.** `CCCNP(N)(=NP(N)(N)=O)NCCC` [Verbindung 4, 3,3-Bis(propylamino)-1,1,3,-triamino-1-oxo-1λ^5,3λ^5-diphosphaz-2-en] was tested. Which t50-Wert did it give?
**A.** 9,6 d

**Q.** For `CCCCNP(N)(N)=NP(N)(N)=S` [Verbindung 5, 3-Butylamino-1,1,3,3-tetraamino-1-thio-1λ^5,3λ^5-diphosphaz-2-en], which t50-Wert is on record?
**A.** 14,5 d

**Q.** Which t50-Wert does the source give for `CCCCNP(N)(=NP(N)(N)=S)NCCCC` [Verbindung 1, 3,3-Bis(butylamino)-1,1,3,-triamino-1-thio-1λ^5,3λ^5-diphosphaz-2-en] here?
**A.** 9,4 d

same assay, conditions: Konz. 0,5 % HS-N-bez.; soil at 40 % of maximum water capacity, 50 mg urea; t50 = day after start at which inhibition of urea hydrolysis is still 50 %

**Q.** With `CCN(CC)P(N)(N)=NP(N)(N)=S` [Verbindung 7, 3-Diethylamino-1,1,3,3-tetraamino-1-thio-1λ^5,3λ^5-diphosphaz-2-en] as the molecule, how does the t50-Wert read?
**A.** 7,9 d
